Data set [1] addresses T1, human amylin receptor (amylin 3(a) receptor: human calcitonin receptor + RAMP-3) (Homo sapiens, UniProt O60896+P30988).
T1 construct: expressed in transfected cells; host or cells: BHK570
T1 sequence (P30988 25-474): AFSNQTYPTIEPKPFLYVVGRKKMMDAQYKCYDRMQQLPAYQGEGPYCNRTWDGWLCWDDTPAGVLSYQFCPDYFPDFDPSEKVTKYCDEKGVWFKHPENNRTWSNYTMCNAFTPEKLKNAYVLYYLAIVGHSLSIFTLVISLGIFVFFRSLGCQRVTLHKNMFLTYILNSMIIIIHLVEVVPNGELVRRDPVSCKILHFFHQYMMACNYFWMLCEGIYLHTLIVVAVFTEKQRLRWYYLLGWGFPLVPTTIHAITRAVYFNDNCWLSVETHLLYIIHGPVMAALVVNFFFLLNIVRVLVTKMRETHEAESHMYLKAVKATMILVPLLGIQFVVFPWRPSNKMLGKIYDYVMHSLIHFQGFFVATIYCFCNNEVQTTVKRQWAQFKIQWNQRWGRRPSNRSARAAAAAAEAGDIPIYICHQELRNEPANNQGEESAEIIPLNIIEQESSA
T1 sequence (O60896 24-148 partner): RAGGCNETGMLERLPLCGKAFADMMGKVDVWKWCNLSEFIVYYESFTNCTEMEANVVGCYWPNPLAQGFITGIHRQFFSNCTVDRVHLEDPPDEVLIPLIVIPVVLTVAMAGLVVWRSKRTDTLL
As to the kind of experiment: Assay (II)a functional CRE-luciferase assay, human amylin receptor. The format is cell-based. Conditions: Table 2; BHK amylin 3(a)-receptor/CRE-luc cells.

Data set [2] can be described thus: Assay (IV) determination of solubility. The format is physicochemical. Summed up:
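Stock ~500 nmol/ml in water; 1:1 with 100 mM buffer, pH 3.0–8.0 (glycylglycine ≤5.0, bistrispropane ≥6.0); 18 h RT; spin; HPLC quantitation of soluble polypeptide.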

Data set [3] concerns the target T2, human calcitonin receptor (Homo sapiens, UniProt P30988).
T2 construct: expressed in transfected cells; host or cells: BHK570
T2 sequence (P30988 25-474): T1 sequence (P30988 25-474)
Put plainly: Assay (II)a functional CRE-luciferase assay, human calcitonin receptor. The format is cell-based. Particulars: Table 7; human calcitonin (CTa) receptor.

Where [4] appears, read: bistrispropane buffer, pH 6, pH 6.0, read-out: Solubility pH 6.0.
Where [5] appears, read: bistrispropane buffer, pH 6.5, pH 6.5, read-out: Solubility pH 6.5.
Setting [6] is: bistrispropane buffer, pH 7, pH 7.0, read-out: Solubility pH 7.0.
Where [7] appears, read: bistrispropane buffer, pH 7.5, pH 7.5, read-out: Solubility pH 7.5.
Where [8] appears, read: bistrispropane buffer, pH 8, pH 8.0, read-out: Solubility pH 8.0.
Where [9] appears, read: glycylglycine buffer, pH 3, pH 3.0, read-out: Solubility pH 3.0.
Setting [10] is: glycylglycine buffer, pH 4, pH 4.0, 18 hours at room temperature, Table 2, read-out: Solubility pH 4.0.
The mark [11] stands for this setting: glycylglycine buffer, pH 4, pH 4.0, read-out: Solubility pH 4.0.
The mark [12] stands for this setting: glycylglycine buffer, pH 5, pH 5.0, read-out: Solubility pH 5.0.

In brackets after ≈: the same amount, converted by molar mass. Read-outs that look alike come from different tables or passages of the source. Starred links: 1 amine or outer side, 2 acyl side, 3 side chain; linkers in the order of their positions; H or OH if unused. Positions of bridges follow the written chain, without caps; N, C: chain ends. Residues, ends and D or L forms follow the SMILES beside them. *: point of attachment. C20 diacid = O=C(O)CCCCCCCCCCCCCCCCCCC(=O)*; C18 diacid = O=C(O)CCCCCCCCCCCCCCCCC(=O)*; γGlu = O=C(O)[C@H](CCC(=O)[*:2])N[*:1]

Consider `CC[C@H](C)[C@H](NC(=O)[C@H](CCC(=O)O)NC(=O)CNC(=O)[C@H](Cc1ccccc1)NC(=O)[C@H](CC(N)=O)NC(=O)[C@H](CC(N)=O)NC(=O)[C@H](CO)NC(=O)[C@H](CO)NC(=O)[C@H](CCCNC(=N)N)NC(=O)[C@H](Cc1c[nH]cn1)NC(=O)[C@H](CC(C)C)NC(=O)[C@H](Cc1ccccc1)NC(=O)[C@H](CCC(=O)O)NC(=O)[C@H](C)NC(=O)[C@H](CC(C)C)NC(=O)[C@H](CCCNC(=N)N)NC(=O)[C@H](CCC(N)=O)NC(=O)[C@@H](NC(=O)[C@H](C)NC(=O)[C@@H]1CSSC[C@H](NC(=O)[C@H](Cc2c[nH]cn2)NC(=O)CC[C@H](NC(=O)CCCCCCCCCCCCCCCCCCC(=O)O)C(=O)O)C(=O)N[C@@H](CC(N)=O)C(=O)N[C@@H]([C@@H](C)O)C(=O)N[C@@H](C)C(=O)N[C@@H]([C@@H](C)O)C(=O)N1)[C@@H](C)O)C(=O)N[C@@H](CC(C)C)C(=O)N[C@@H](CO)C(=O)N[C@@H](CCCNC(=N)N)C(=O)N[C@H](C(=O)N[C@@H](CC(N)=O)C(=O)N[C@H](C(=O)NCC(=O)N[C@@H](CO)C(=O)N[C@@H](CC(N)=O)C(=O)N[C@H](C(=O)N[C@@H](Cc1ccc(O)cc1)C(N)=O)[C@@H](C)O)C(C)C)[C@@H](C)O` [Example 7, N-alpha-[(S)-4-Carboxy-4-(19-carboxynonadecanoylamino)butyryl]-[His1,Glu14,His17,Arg18,Glu25,Ser28,Arg29]-pramlintide] ({C20 diacid-γGlu}-HCNTATCATQRLAEFLHRSSNNFGEILSRTNVGSNTY-NH2; disulfide 2-7 (inferred); C-terminus assumed), for which the EC50 in data set [1] came out at 0.0779 nM; in data set [3] it was 0.131 nM. In addition, the solubility at 18 h is 69 µM (≈ 315 µg/mL) in data set [2] (setting [4]); 32 µM (≈ 146 µg/mL) in data set [2] (setting [5]); 42 µM (≈ 192 µg/mL) in data set [2] (setting [6]); 89 µM (≈ 406 µg/mL) in data set [2] (setting [7]); 155 µM (≈ 708 µg/mL) in data set [2] (setting [8]); greater than 200 µM in data set [2] (setting [9]). In addition, the results for the solubility at 18 h in data set [2] (setting [10]), in data set [2] (setting [11]) and in data set [2] (setting [12]) were greater than 200 µM, greater than 200 µM and 13 µM (≈ 59.3 µg/mL), respectively.

As for `CC[C@H](C)[C@H](NC(=O)[C@@H]1CCCN1C(=O)CNC(=O)[C@H](Cc1ccccc1)NC(=O)[C@H](CC(N)=O)NC(=O)[C@H](CC(N)=O)NC(=O)[C@H](CO)NC(=O)[C@H](CO)NC(=O)[C@H](Cc1c[nH]cn1)NC(=O)[C@H](CCCNC(=N)N)NC(=O)[C@H](CC(C)C)NC(=O)[C@H](Cc1ccccc1)NC(=O)[C@H](CCC(=O)O)NC(=O)[C@H](C)NC(=O)[C@H](CC(C)C)NC(=O)[C@H](CCCNC(=N)N)NC(=O)[C@H](CCC(N)=O)NC(=O)[C@@H](NC(=O)[C@H](C)NC(=O)[C@@H]1CSSC[C@H](NC(=O)[C@H](CCCCN)NC(=O)CC[C@H](NC(=O)CCCCCCCCCCCCCCCCCCC(=O)O)C(=O)O)C(=O)N[C@@H](CC(N)=O)C(=O)N[C@@H]([C@@H](C)O)C(=O)N[C@@H](C)C(=O)N[C@@H]([C@@H](C)O)C(=O)N1)[C@@H](C)O)C(=O)N[C@@H](CC(C)C)C(=O)N1CCC[C@H]1C(=O)N1CCC[C@H]1C(=O)N[C@H](C(=O)N[C@@H](CC(N)=O)C(=O)N[C@H](C(=O)NCC(=O)N[C@@H](CO)C(=O)N[C@@H](CC(N)=O)C(=O)N[C@H](C(=O)N[C@@H](Cc1ccc(O)cc1)C(N)=O)[C@@H](C)O)C(C)C)[C@@H](C)O` [Example 50, N-alpha-[(S)-4-Carboxy-4-(19-carboxynonadecanoylamino)butyryl]-[Glu14,Arg17]-pramlintide] ({C20 diacid-γGlu}-KCNTATCATQRLAEFLRHSSNNFGPILPPTNVGSNTY-NH2; disulfide 2-7 (inferred)), the values for the EC50 in data set [1] and in data set [3] were 0.101 nM and 0.459 nM, respectively. Besides, the solubility at 18 h in data set [2] (setting [4]) was 161 µM (≈ 720 µg/mL); in data set [2] (setting [5]), 132 µM (≈ 591 µg/mL); in data set [2] (setting [6]), 73 µM (≈ 327 µg/mL); in data set [2] (setting [7]), 62 µM (≈ 277 µg/mL); in data set [2] (setting [8]) it was 21 µM (≈ 94 µg/mL); in data set [2] (setting [9]) it was greater than 200 µM. Besides, the results for the solubility at 18 h in data set [2] (setting [10]), in data set [2] (setting [11]) and in data set [2] (setting [12]) were greater than 200 µM, greater than 200 µM and 183 µM (≈ 819 µg/mL), respectively.

In the case of `CC[C@H](C)[C@H](NC(=O)[C@@H]1CCCN1C(=O)CNC(=O)[C@H](Cc1ccccc1)NC(=O)[C@H](CC(N)=O)NC(=O)[C@H](CC(N)=O)NC(=O)[C@H](CO)NC(=O)[C@H](CO)NC(=O)[C@H](Cc1c[nH]cn1)NC(=O)[C@H](CCCNC(=N)N)NC(=O)[C@H](CC(C)C)NC(=O)[C@H](Cc1ccccc1)NC(=O)[C@H](CCC(=O)O)NC(=O)[C@H](C)NC(=O)[C@H](CC(C)C)NC(=O)[C@H](CCCNC(=N)N)NC(=O)[C@H](CCC(N)=O)NC(=O)[C@@H](NC(=O)[C@H](C)NC(=O)[C@@H]1CSSC[C@H](NC(=O)[C@H](CCCCN)NC(=O)[C@H](Cc2c[nH]cn2)NC(=O)CC[C@H](NC(=O)CCCCCCCCCCCCCCCCC(=O)O)C(=O)O)C(=O)N[C@@H](CC(N)=O)C(=O)N[C@@H]([C@@H](C)O)C(=O)N[C@@H](C)C(=O)N[C@@H]([C@@H](C)O)C(=O)N1)[C@@H](C)O)C(=O)N[C@@H](CC(C)C)C(=O)N1CCC[C@H]1C(=O)N1CCC[C@H]1C(=O)N[C@H](C(=O)N[C@@H](CC(N)=O)C(=O)N[C@H](C(=O)NCC(=O)N[C@@H](CO)C(=O)N[C@@H](Cc1c[nH]cn1)C(=O)N[C@H](C(=O)N[C@@H](Cc1ccc(O)cc1)C(N)=O)[C@@H](C)O)C(C)C)[C@@H](C)O` [Example 71, N-alpha-[(S)-4-Carboxy-4-(17-carboxyheptadecanoylamino)butyryl]-His-[Glu14,Arg17,His35]-pramlintide] ({C18 diacid-γGlu}-HKCNTATCATQRLAEFLRHSSNNFGPILPPTNVGSHTY-NH2; disulfide 3-8 (inferred); C-terminus assumed), the EC50 is 0.0795 nM in data set [1] and 0.947 nM in data set [3]. Besides, the solubility at 18 h in data set [2] (setting [4]) is greater than 200 µM; in data set [2] (setting [5]), 156 µM (≈ 719 µg/mL); in data set [2] (setting [6]), 37 µM (≈ 170 µg/mL); in data set [2] (setting [7]), 27 µM (≈ 124 µg/mL); in data set [2] (setting [8]), 26 µM (≈ 120 µg/mL); in data set [2] (setting [9]), greater than 200 µM. In addition, the solubility at 18 h in data set [2] (setting [10]), in data set [2] (setting [11]) and in data set [2] (setting [12]) was greater than 200 µM throughout.

As to `CC[C@H](C)[C@H](NC(=O)[C@@H]1CCCN1C(=O)CNC(=O)[C@H](Cc1ccccc1)NC(=O)[C@H](CC(N)=O)NC(=O)[C@H](CCC(N)=O)NC(=O)[C@H](CO)NC(=O)[C@H](CO)NC(=O)[C@H](Cc1c[nH]cn1)NC(=O)[C@H](Cc1c[nH]cn1)NC(=O)[C@H](CC(C)C)NC(=O)[C@H](Cc1ccccc1)NC(=O)[C@H](CCC(=O)O)NC(=O)[C@H](C)NC(=O)[C@H](CC(C)C)NC(=O)[C@H](CCCNC(=N)N)NC(=O)[C@H](CCC(N)=O)NC(=O)[C@@H](NC(=O)[C@H](C)NC(=O)[C@@H]1CSSC[C@H](NC(=O)[C@H](CCCCN)NC(=O)CC[C@H](NC(=O)CCCCCCCCCCCCCCCCCCC(=O)O)C(=O)O)C(=O)N[C@@H](CC(N)=O)C(=O)N[C@@H]([C@@H](C)O)C(=O)N[C@@H](C)C(=O)N[C@@H]([C@@H](C)O)C(=O)N1)[C@@H](C)O)C(=O)N[C@@H](CC(C)C)C(=O)N1CCC[C@H]1C(=O)N1CCC[C@H]1C(=O)N[C@H](C(=O)N[C@@H](CC(N)=O)C(=O)N[C@H](C(=O)NCC(=O)N[C@@H](CO)C(=O)N[C@@H](Cc1c[nH]cn1)C(=O)N[C@H](C(=O)N[C@@H](Cc1ccc(O)cc1)C(N)=O)[C@@H](C)O)C(C)C)[C@@H](C)O` [Example 117, N-alpha-[(S)-4-Carboxy-4-(19-carboxynonadecanoylamino)butyryl]-[Glu14,His17,Gln21,His35)-pramlintide] ({C20 diacid-γGlu}-KCNTATCATQRLAEFLHHSSQNFGPILPPTNVGSHTY-NH2; disulfide 2-7 (inferred); C-terminus assumed), the results for the EC50 in data set [1] and in data set [3] were 0.156 nM and 0.169 nM, respectively. Moreover, the solubility at 18 h in data set [2] (setting [4]) is greater than 200 µM; in data set [2] (setting [5]), greater than 200 µM; in data set [2] (bistrispropane buffer, pH 7, pH 7.0, 18 hours at room temperature, Table 3, read-out: Solubility pH 7.0), greater than 200 µM; in data set [2] (bistrispropane buffer, pH 7, pH 7.0, Table 8, read-out: Solubility pH 7.0), greater than 200 µM; in data set [2] (bistrispropane buffer, pH 7, pH 7.0, Table 9, read-out: Solubility pH 7.0) it was greater than 200 µM; in data set [2] (setting [6]), greater than 200 µM. The solubility at 18 h was greater than 200 µM in data set [2] (bistrispropane buffer, pH 7.5, pH 7.5, Table 9, read-out: Solubility pH 7.5); greater than 200 µM in data set [2] (setting [7]); greater than 200 µM in data set [2] (setting [8]); greater than 200 µM in data set [2] (setting [9]); greater than 200 µM in data set [2] (setting [10]); greater than 200 µM in data set [2] (setting [11]). Also, the solubility at 18 h in data set [2] (setting [12]) is greater than 200 µM.

As usually defined, the EC50 is the concentration that produces a half-maximal response. What is called solubility is how much of the substance goes into solution per volume.

These data come from patent US8722849B2, “Polypeptides” (Novo Nordisk A/S, priority 2011, dated 2014).
